Laboratory results as given in article PMC10882959, “Gas-Selective Catalytic Regulation by a Newly Identified Globin-Coupled Sensor Phosphodiesterase Containing an HD-GYP Domain from the Human Pathogen Vibrio fluvialis” (Biochemistry, 2024).
Several values for one entry are separate records, joined by “and”; a condition that tells them apart may be missing. Equal values may be shown once.

Legend:
V. furnissii GCS-HD-GYP = target: T1, V. furnissii GCS-HD-GYP (Vibrio furnissii, UniProt A0A0Q2RS25); experiment: HPLC hydrolysis assay, […] nm; type: biochemical; conditions: 1 mM MnCl2, pH 8.0, 20 °C; Fe(III) heme form; optimal conditions of V. fluvialis enzyme
T1 construct: gene AMR76_07425; full length, C-terminal His6 tag kept, pET-21a (codon-optimized), E. coli host; dimer

[1] = target: T2, GCS-HD-GYP (V. fluvialis) (Vibrio fluvialis, UniProt A0AAX2LUU7); experiment: HPLC hydrolysis assay, […] nm; type: biochemical; conditions: 1 mM MnCl2, pH 8.0, 20 °C
T2 construct: gene AL536_01530; full length, C-terminal His6 tag kept, pET-21a (codon-optimized), E. coli BL21(DE3), heme-reconstituted in crude extract; mainly dimer (85 kDa by SEC)

[2] = target: the molecule itself; experiment: SEC; Superdex 200 Increase 10/300 GL, 50 mM Tris-HCl pH 8.0, 100 mM NaCl; 100 uL of 20 uM protein injected; mass estimated from standard proteins

What does the source list for `Nc1nc2c(ncn2[C@@H]2O[C@@H]3COP(=O)(O)O[C@H]4[C@@H](O)[C@H](n5cnc6c(=O)[nH]c(N)nc65)O[C@@H]4COP(=O)(O)O[C@H]3[C@H]2O)c(=O)[nH]1` [c-di-GMP]?
HPLC hydrolysis assay, 254 nm (V. furnissii GCS-HD-GYP): the specific activity for the PDE activity of the Fe(III) complex of V. furnissii GCS-HD-GYP; HPLC hydrolysis assay, 254 nm ([1]; 0.1 mM c-di-GMP, Fe(III) or Fe(II)-O2 heme form): The Fe(III) and Fe(II)-O2 complexes of GCS-HD-GYP catalyzed the hydrolysis of c-di-GMP to form pGpG

For `Nc1nc2c(ncn2[C@@H]2O[C@H](COP(=O)(O)O[C@H]3[C@@H](O)[C@H](n4cnc5c(=O)[nH]c(N)nc54)O[C@@H]3COP(=O)(O)O)[C@@H](O)[C@H]2O)c(=O)[nH]1` [pGpG], which “HPLC hydrolysis assay, 254 nm” value ([1]; product of c-di-GMP hydrolysis, Fe(III) heme form) is on record?
Its value is “conversion of c-di-GMP to a new compound, namely its linearized product pGpG”.

B1: Vibrio fluvialis GCS-HD-GYP (globin-coupled sensor phosphodiesterase containing an HD-GYP domain) (enzyme, UniProt A0AAX2LUU7 1-375, looked up)
chain: METAFSSEPESVIRRWASYLVIDQQTLNTLREFYWVMEQNIDDILSHVYAHLSSNRETAHFYQDEQSVKRAKAHQREHMMRYVFRGNFGAEYYNATNRIGKTHHKLGIDFKIYSGAYCIVLSQLAGVVYKVLAPEIGNVQRYMTALNRVIFMDMGLATSVYYDTACLELEELAHELNFALAKAGEFRDNETGEHIKRISRMSFELAKAAGQEPHWCKMIQIASPLHDVGKIGVPDDILLKPGKLDEQEWNVMQQHPAMGGVIIPDNKSELIRMARRISLTHHEKWDGSGYPAGLKGEEIPLEGRIVAICDVFDALLSTRPYKRPWSMEEVGTYLRDNRGKHFDPQLLDIFIENLANMQLIRCQFEDAVSPEIVAD
notes: GCS-HD-GYP of Vibrio fluvialis, gene AL536_01530, UniProtKB A0A120L350; full-length protein, predicted mass 44.1 kDa with the C-terminal His6 tag; globin domain residues 1-166, HD-GYP domain residues 169-366; Synthetic, codon-optimised gene in pET-21a (NdeI/XhoI); Mostly a dimer, with a minor tetramer peak by SEC; also called V. fluvialis GCS-HD-GYP; AL536_01530; source: E. coli BL21(DE3), …
For B1, which “stoichiometry N” value [2] is on record?
The value was 2 and 4.

B2: Vibrio furnissii GCS-HD-GYP (enzyme, UniProt A0A0Q2RS25 1-375, looked up)
chain: MEVAFGSDPGNAIRRWASYLAIDQQTVDALREYYWIMERNIDEVLAFVYDHLSSCPETAQFYQNEQSIVRARGHLRDHLMLYVFRGHFGVDYYNATIRIGQTHQRLGIDFKVYSGAYCIVMSQLARVVYQSLAPNIDNIHRYMSALNRAIFLDLGLATAVYYDTACFELEELAYELNFALAKAGEFRDNETGEHIKRISRMSFELAKALGQPAHWCKMIQIASPLHDVGKIGVPDEILLKPGKLDADEWKLMQQHPAIGGDIIPDNKSELIRMARRISLTHHEKWDGSGYPAGLAGEEIPLEGRIVAICDVFDALLSTRPYKRAWSVAEVVAYLRENRAKHFDPLLLDCFLEHLDSMLHIRHQFEDAAQPETVAD
notes: GCS-HD-GYP of Vibrio furnissii, gene AMR76_07425, UniProtKB A0A0Q2RS25; molecular mass 43.9 kDa with the C-terminal His6 tag; The synthetic, codon-optimised gene was put into pET-21a (NdeI/XhoI); also called V. furnissii GCS-HD-GYP; AMR76_07425; source: E. coli, purified; not shown: His6, C-terminal, kept
With B2 as the molecule, how does the “stoichiometry N” value [2] read?
The value was 2.
